The values below come from patent US10590132B2, “Selective estrogen receptor down-regulators” (AstraZeneca AB, priority 2017, dated 2020).

Data set [1] can be described thus: Human plasma protein binding (equilibrium dialysis). The data set is classed as in vitro ADME. To be noted: dialysis 18 hours. A general note: In equilibrium dialysis free small molecules cross a membrane that holds back macromolecules.
The target in data set [2] is Estrogen Receptor (ERα) in MCF-7 cells (Homo sapiens (Human), UniProt P03372). The data set can be described thus: MCF-7 ER down-regulation assay (immuno-fluorescence). The data set is classed as cell-based. To be noted: maximum downregulation in the assay.
Chain of Estrogen Receptor (ERα) in MCF-7 cells (P03372 whole entry): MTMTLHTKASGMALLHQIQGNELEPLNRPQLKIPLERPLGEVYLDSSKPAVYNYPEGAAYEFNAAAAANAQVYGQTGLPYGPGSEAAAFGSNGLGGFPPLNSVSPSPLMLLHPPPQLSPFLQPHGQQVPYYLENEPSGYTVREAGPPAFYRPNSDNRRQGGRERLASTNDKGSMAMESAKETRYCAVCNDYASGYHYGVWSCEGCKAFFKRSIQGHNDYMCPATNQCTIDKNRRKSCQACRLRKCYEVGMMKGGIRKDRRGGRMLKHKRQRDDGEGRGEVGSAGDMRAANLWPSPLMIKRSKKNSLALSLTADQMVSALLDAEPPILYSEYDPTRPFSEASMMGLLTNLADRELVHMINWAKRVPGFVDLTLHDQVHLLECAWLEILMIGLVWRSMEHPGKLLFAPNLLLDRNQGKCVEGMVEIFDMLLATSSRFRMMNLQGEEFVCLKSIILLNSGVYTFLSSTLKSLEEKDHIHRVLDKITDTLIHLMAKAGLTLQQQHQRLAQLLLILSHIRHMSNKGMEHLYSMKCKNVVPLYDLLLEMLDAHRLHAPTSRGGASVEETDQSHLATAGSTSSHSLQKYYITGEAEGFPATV
Experimental: The ability of compounds to down-regulate Estrogen Receptor (ER) numbers was assessed in a cell based immuno-fluorescence assay using the MCF-7 human ductal carcinoma breast cell line. MCF-7 cells were revived directly from a cryovial (approx 5×10^6 cells) in Assay Medium (phenol red free Dulbecco's Modified Eagle's medium (DMEM); Sigma D5921) containing 2 mM L-Glutamine and 5% (v/v) Charcoal/Dextran treated foetal calf serum. Cells were syringed once using a sterile 18G×1.5 inch (1.2×40 mm) broad gauge needle and cell density was measured using a Coulter Counter (Beckman). […] Following cell seeding, plates were incubated overnight at 37° C., 5% CO2 (Liconic carousel incubator). Test data was generated using the LabCyte Echomodel 555 compound reformatter which is part of an automated workcell (Integrated Echo 2 workcell). Compound stock solutions (10 mM) of the test compounds were used to generate a 384 well compound dosing plate (Labcyte P-05525-CV1). […] 40 μL of DMSO added to wells in row P on the source plate allowed for DMSO normalisation across the dose range. […]
The Echo uses acoustic technology to perform direct microplate-to-microplate transfers of DMSO compound solutions to assay plates. […] 20 μL of PBS was added to each well and the plates covered with a black plate seal and stored at 4° C. before being read. […]

On to `COCc1ccc(OCCNCCCF)cc1[C@@H]1c2[nH]c3ccccc3c2C[C@@H](C)N1CC(F)(F)F` [Example 71, 3-fluoro-N-(2-(4-(methoxymethyl)-3-((1R,3R)-3-methyl-2-(2,2,2-trifluoroethyl)-2,3,4,9-tetrahydro-1H-pyrido[3,4-b]indol-1-yl)phenoxy)ethyl)propan-1-amine], for which the “Human plasma protein binding (% free)” value in data set [1] was found to be 0.44 % free. Further, in data set [2], the “% downregulation (in brackets)” value worked out at 90%.
